These results are taken from patent publication US7294643B2, “UK-1 analogues: methods of preparation and use” (Board of Regents, The University of Texas System, priority 2002, dated 2007).

Type in all cases: cell-based
For one experiment, the system named is HT-29 cells. Briefly: alamarBlue cytotoxicity assay, HT-29. The following applies: Homo sapiens; HT-29, alamarBlue, 72 h. As to the method:
(§1) Cytotoxicity Assays. Cell culture cytotoxicity assays were performed using the. alamarBlue method, as described by Ahmed et al., J. Immun. Methods 1994, 170, 211-224, which is incorporated herein by reference. Briefly, aliquots of 100 μL of cell suspension (1.0-2.5×10^3 cells) was placed in 96-well microtiter plates in an atmosphere of 5% CO2 at 37° C. After 24 hours, 100 μL of culture medium and 2 μL of compound in vehicle (culture media with 40% pyridine) or vehicle alone were added, and the plates incubated an additional 72 hours. The final pyridine concentration in all cases was 0.4%; at this pyridine concentration there was no affect on the growth of cells compared to cells in culture media without added pyridine. […] After the culture media had been removed from each well, 200 μL of fresh media and 20 μL of 90% alamarBlue reagent were added, followed by an additional 6 h incubation. The fluorescent intensity was measured using a Spectrafluor Plus plate reader with excitation at 530 nm and emission at 590 nm. Results are reported as IC50 values, the average concentration required to produce a decrease of fluorescent intensity of 50% relative to vehicle-treated controls in two separate determinations.

The subject of a further experiment is DU145. The experiment in a line: alamarBlue cytotoxicity assay, DU145. The following applies: Homo sapiens, DU-145. As to the method:
as §1

The subject of the next experiment is SKBR3. Briefly: alamarBlue cytotoxicity assay, SKBR3. The settings on record: Homo sapiens, SK-BR-3. As to the method:
as §1

For another experiment, the system named is SK-N-F1. The experiment in a line: alamarBlue cytotoxicity assay, SK-N-F1. As to the method:
as §1

Molecules are shown by their SMILES.

Consider `COC(=O)c1cccc2oc(-c3cccc4oc(-c5ccccc5O)nc34)nc12` [UK-1], for which the half-inhibitory concentration (IC50) was 65 µM in the experiment on HT-29 cells, 0.2 µM in the experiment with DU145, 0.1 µM in the experiment with SKBR3 and 7 µM in the experiment on SK-N-F1.
